One data set has as its target T1, KOP (Homo sapiens, UniProt P41145).
T1 construct: expressed in transfected cells; host or cells: CHO cells (membranes)
Description: biochemical. The data set is classed as binding. Conditions: [3H]U69593, membranes of CHO cells with human receptor.

In data set [1] the target is T2, NOP (Homo sapiens, UniProt P41146).
T2 construct: expressed in transfected cells; host or cells: CHO cells (membranes)
In words: Binding affinity to human NOP receptor transfected into CHO cells ([3H]N/OFQ).

The target in data set [2] is T3, MOP (Homo sapiens, UniProt P35372).
T3 construct: expressed in transfected cells; host or cells: CHO cells (membranes)
In words: biochemical. To be noted: [3H]DAMGO, membranes of CHO cells with human receptor. It is filed as binding.

Data set [3] has as its target T3, MOP. Description: [35S]GTPγS binding, MOP. It is filed as biochemical. Conditions: 1 h; read-out: % stim MOP. As for the experimental part: (§1) [^35S]GTPγS binding was conducted basically as described by Traynor and Nahorski (Traynor et al., 1995). Cells were scraped from tissue culture dishes into 20 mM Hepes, 1 mM EDTA, then centrifuged at 500×g for 10 min. Cells were resuspended in this buffer and homogenized using a Polytron Homogenizer. The homogenate was centrifuged at 27,000×g for 15 min, and the pellet re suspended in Buffer A, containing: 20 mM Hepes, 10 mM MgCl2, 100 mM NaCl, pH 7.4. The suspension was re centrifuged at 27,000×g and suspended once more in Buffer A. For the binding assay, membranes (8-15 μg protein) were incubated with [^35S]GTPγS (50 pM), GDP (10 μM), and the appropriate compound, in a total volume of 1.0 ml, for 60 min at 25′C. Samples were filtered over glass fiber filters and counted as described for the binding assays. Statistical analysis was conducted using the program Prism®.

The target in data set [4] is T2, NOP. Description: [35S]GTPγS binding, NOP. It is filed as biochemical. To be noted: 1 h; read-out: % stim NOP. As for the experimental part:
as §1

The next data set deals with T4, KOPr (Homo sapiens, UniProt P41145).
T4 construct: expressed in transfected cells
Description: [35S]GTPγS binding, KOPr. It is filed as biochemical. On the procedure: as §1

Data set [5] has as its system rhesus monkeys. In words: Scratching responses and sedation after intrathecal administration. The data set is classed as in vivo. To be noted: intrathecal 3 μg. An excerpt:
(§2) These findings illustrate the safe and favorable profile of 11.

Data set [6] concerns carrageenan-induced thermal hyperalgesia. Description: Carrageenan-induced thermal hyperalgesia (paw withdrawal latency). It is filed as in vivo. As for the experimental part: Compound 11 was tested for its effect on carrageenan-induced thermal hyperalgesia measured by paw withdrawal latency (FIG. 1a) and anti-hyperalgesic effect (FIG. 1b).
Data set [7] concerns rhesus monkeys. Description: Antinociception against acute noxious stimulus (50° C. water). It is filed as in vivo.
Excerpt: as §2

Data set [8] relates to rhesus monkeys. In words: Physiological functions of monkeys (respiration, heart rate, blood pressure). It is filed as in vivo. To be noted: 0.01 mg/kg s.c.
Excerpt: as §2

Data set [9] deals with rhesus monkeys. Description: Operant responding assay (self-administration). The data set is classed as in vivo.
Excerpt: as §2

Structures are written as SMILES.

T2 sequence (P41146 whole entry): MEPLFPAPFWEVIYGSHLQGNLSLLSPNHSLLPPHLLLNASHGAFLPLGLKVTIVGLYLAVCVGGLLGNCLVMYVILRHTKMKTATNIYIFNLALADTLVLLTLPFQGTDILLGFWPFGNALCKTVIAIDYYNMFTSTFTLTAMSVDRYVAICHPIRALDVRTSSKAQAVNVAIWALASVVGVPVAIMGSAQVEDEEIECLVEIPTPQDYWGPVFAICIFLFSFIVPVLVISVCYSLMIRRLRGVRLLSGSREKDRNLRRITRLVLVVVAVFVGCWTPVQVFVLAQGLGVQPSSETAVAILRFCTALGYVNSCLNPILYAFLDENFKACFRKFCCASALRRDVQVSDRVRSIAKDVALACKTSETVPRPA
T3 sequence (P35372 whole entry): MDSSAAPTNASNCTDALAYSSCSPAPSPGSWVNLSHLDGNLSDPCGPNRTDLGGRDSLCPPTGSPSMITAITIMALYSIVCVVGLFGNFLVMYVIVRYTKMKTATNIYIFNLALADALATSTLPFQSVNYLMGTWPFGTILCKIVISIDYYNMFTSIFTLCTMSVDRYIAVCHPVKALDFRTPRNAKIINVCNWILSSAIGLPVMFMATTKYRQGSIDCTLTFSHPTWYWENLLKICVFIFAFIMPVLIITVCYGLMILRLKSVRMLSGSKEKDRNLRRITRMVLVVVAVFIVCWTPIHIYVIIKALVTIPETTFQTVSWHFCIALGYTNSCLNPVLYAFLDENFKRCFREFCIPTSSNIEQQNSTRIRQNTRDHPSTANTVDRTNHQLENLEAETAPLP
T1 sequence (P41145 whole entry): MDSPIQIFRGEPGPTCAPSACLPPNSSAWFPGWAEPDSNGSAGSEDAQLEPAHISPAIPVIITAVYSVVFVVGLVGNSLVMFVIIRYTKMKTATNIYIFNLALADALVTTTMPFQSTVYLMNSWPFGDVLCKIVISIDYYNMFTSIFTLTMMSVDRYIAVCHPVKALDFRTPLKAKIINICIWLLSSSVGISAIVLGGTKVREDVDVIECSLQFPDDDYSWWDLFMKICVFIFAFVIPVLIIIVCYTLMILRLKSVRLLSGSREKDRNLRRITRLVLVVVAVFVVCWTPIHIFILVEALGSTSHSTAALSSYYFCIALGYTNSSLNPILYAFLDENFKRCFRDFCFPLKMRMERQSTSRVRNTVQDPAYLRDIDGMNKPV
T4 sequence (P41145 whole entry): as above

Take `O=C(CCc1ccccc1)O[C@@]12CCC(=O)[C@@H]3Oc4c(O)ccc5c4[C@@]31CCN(CC1CC1)C2C5` [Compound 11, 14β-Phenylpropanoyl-17-cyclopropylmethyl-7,8-dihydronoroxymorphinone]: the values for the Ki at KOP, on NOP [1] and at MOP [2] were 10.5 ± 0.17 nM, 14.8 ± 0.94 nM and 0.86 ± 0.23 nM, respectively. Also, the Emax on MOP [3] came out at 18%; on NOP [4], 34%. At KOPr, the “stimulation of the KOPr” value is listed as “no stimulation”. For the same compound, in the data set on rhesus monkeys [5], the scratching responses entry is recorded as “without eliciting scratching responses”. The signs of sedation entry with rhesus monkeys [5] (during test period) was “did not show any signs of sedation”. The “reversal of 11-induced reversal of thermal hyperalgesia by pretreatment with NOP receptor antagonist J113397” value in data set [6] (J113397 pretreatment) is listed as “partially reverse”. In addition, in data set [6] (intrathecal), the “effect on carrageenan-induced thermal hyperalgesia (paw withdrawal latency, anti-hyperalgesic effect)” value is “efficacious and long acting”. Moreover, the “reversal of 11-induced reversal of thermal hyperalgesia by pretreatment with MOP receptor antagonist naltrexone” value in data set [6] (naltrexone pretreatment) is given as “partially reverse”. The antinociceptive effect entry in the data set on rhesus monkeys [7] (0.01 mg/kg s.c., rhesus monkeys) was “full antinociceptive effects”; with rhesus monkeys [7] (intrathecal 3 μg, monkeys), “full antinociceptive effects”. For the same compound, in the data set with rhesus monkeys [7] (intrathecal 3 μg, monkeys), the “duration of full antinociceptive effects” value is 24 h. In the data set with rhesus monkeys [7] (s.c. 0.001-0.01 mg/kg, rhesus monkeys), this compound returned a duration of antinociception of roughly 24 h. Further, the “antinociception against acute noxious stimulus (50° C. water)” value in the data set with rhesus monkeys [7] (s.c. 0.001-0.01 mg/kg, rhesus monkeys, pilot experiments) is listed as “dose-dependently produced long lasting antinociception”. Further, the bradycardia and hypotension result in the data set with rhesus monkeys [8] is “no bradycardia and hypotension”. Moreover, the respiratory depression result in the data set with rhesus monkeys [8] was “no respiratory depression”. Moreover, the “self-administration (abuse liability)” value with rhesus monkeys [9] is given as “did not self-administer”.

These data come from patent publication US9969746B2, “Opioid compounds and their uses” (THE UNIVERSITY OF BATH, priority 2013, dated 2018).
